Results taken from US9018206B2, “Carboxamide compounds and their use as calpain inhibitors” (AbbVie Deutschland GmbH & Co. KG, priority 2009, dated 2015).

Assays:
Type in all cases: biochemical
[1] = molecular target: T1, recombinant human cathepsin S (Homo sapiens, UniProt P25774); assay: Cathepsin S enzyme inhibition in vitro (kinetic fluorescence assay); conditions: Ki(cathepsin S)/Ki(calpain) ratio
T1 construct: purchased Calbiochem 219343; host or cells: E. coli
Procedure, shortened: (§1)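 Kinetic AMC fluorescence (ex 390/em 460 nm), room temperature. Calpain-I 20 nM, 100 μM Suc-Leu-Tyr-AMC, imidazole/CaCl2 pH 7.3; cathepsins B 0.25 nM/100 μM Z-Phe-Arg-AMC, K 3 nM/10 μM Z-Gly-Pro-Arg-AMC, S 0.5 nM/20 μM Z-Val-Val-Arg-AMC, each MES/EDTA/cysteine pH 6.0. Ki from IC50 via Cheng-Prusoff, averaging 2–4 curves.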

[2] = molecular target: T2, cathepsin L isolated from human liver (Homo sapiens, UniProt P07711); assay: Cathepsin L enzyme inhibition in vitro (kinetic fluorescence assay); conditions: Ki(cathepsin L)/Ki(calpain) ratio
T2 construct: cathepsin L—isolated from human liver; purchased Calbiochem 219402; host or cells: human liver (tissue-derived)
Protocol: Testing for blockade of the corresponding enzymic activities was carried out by means of kinetic fluorescence assays (excitation 390 nm, emission 460 nm).
Apparent Ki values were calculated from the experimentally determined IC50 values by the Cheng-Prussoff relation assuming a reversible competitive enzyme inhibition. The Km values of the substrates used under the assay conditions indicated above were: 90 μM (Z-Phe-Arg-AMC, cathepsin B), 10 μM (Z-Gly-Pro-Arg-AMC, cathepsin K), 2 μM (Z-Phe-Arg-AMC, cathepsin L), and 30 μM (Z-Val-Val-Arg-AMC, cathepsin S).
The indicated Ki values are averages of the inhibition constants calculated on the basis of 2 to 4 independent dose-effect plots.
• 20 nM calpain-I—isolated from human erythrocytes (Calbiochem #208713), 100 μM Suc-Leu-Tyr-AMC (Bachem #I-1355) as substrate in buffer with 62 mM imidazole, 0.3 mM CaCl2, 0.10% CHAPS, 0.05% BSA, 1 mM DTT at pH 7.3 and room temperature. 1. Cathepsin B: • 0.25 nM cathepsin B—isolated from human liver (Calbiochem #219362), 100 μM Z-Phe-Arg-AMC (Bachem #I-1160) as substrate 50 mM MES, 2 mM EDTA, 0.05% Brij 35, 2.5 mM L-cysteine, pH 6.0, room temperature. 3. Cathepsin K: • 3 nM cathepsin K activated from recombinant human procathepsin K from E. coli (Calbiochem #342001), 10 μM Z-Gly-Pro-Arg-AMC (Biomol #P-142) as substrate in 50 mM MES, 2 mM EDTA, 0.05% Brij 35, 2.5 mM L-cysteine, pH 6.0, room temperature. 4. Cathepsin L: • 1 nM cathepsin L—isolated from human liver (Calbiochem #219402), 2 μM Z-Phe-Arg-AMC (Bachem #I-1160) as substrate in 50 mM MES, 2 mM EDTA, 0.05% Brij 35, 2.5 mM L-cysteine, pH 6.0, room temperature. 5. Cathepsin S: • 0.5 nM recombinant human cathepsin S from E. coli (Calbiochem #219343), 20 μM Z-Val-Val-Arg-AMC (Bachem #I-1540) as substrate in 50 mM MES, 2 mM EDTA, 0.05% Brij 35, 2.5 mM L-cysteine, pH 6.0, room temperature.

[3] = molecular target: T3, cathepsin B isolated from human liver (Homo sapiens, UniProt P07858); assay: Cathepsin B enzyme inhibition in vitro (kinetic fluorescence assay); conditions: Ki(cathepsin B)/Ki(calpain) ratio
T3 construct: cathepsin B—isolated from human liver; purchased Calbiochem 219362; host or cells: human liver (tissue-derived)
Procedure, shortened: as §1

[4] = molecular target: T4, cathepsin K activated from recombinant human procathepsin K (Homo sapiens, UniProt P43235); assay: Cathepsin K enzyme inhibition in vitro (kinetic fluorescence assay); conditions: Ki(cathepsin K)/Ki(calpain) ratio
T4 construct: purchased Calbiochem 342001; host or cells: E. coli
T4 sequence (P43235 115-329): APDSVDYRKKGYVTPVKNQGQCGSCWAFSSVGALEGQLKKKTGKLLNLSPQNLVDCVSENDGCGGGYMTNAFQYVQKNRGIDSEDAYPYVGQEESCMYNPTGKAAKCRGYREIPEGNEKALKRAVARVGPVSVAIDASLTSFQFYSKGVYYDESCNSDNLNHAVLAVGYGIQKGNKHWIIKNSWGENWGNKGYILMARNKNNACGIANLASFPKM
Procedure, shortened: as §1

[5] = molecular target: T5, calpain-I isolated from human erythrocytes (Homo sapiens, UniProt P07384); assay: Calpain I enzyme inhibition in vitro (kinetic fluorescence assay); conditions: apparent Ki from IC50 (Cheng-Prussoff); 20 nM calpain-I, 100 μM Suc-Leu-Tyr-AMC, pH 7.3, room temperature
T5 construct: calpain-I—isolated from human erythrocytes; purchased Calbiochem 208713; host or cells: human erythrocytes (tissue-derived)
T5 sequence (P07384 1-714): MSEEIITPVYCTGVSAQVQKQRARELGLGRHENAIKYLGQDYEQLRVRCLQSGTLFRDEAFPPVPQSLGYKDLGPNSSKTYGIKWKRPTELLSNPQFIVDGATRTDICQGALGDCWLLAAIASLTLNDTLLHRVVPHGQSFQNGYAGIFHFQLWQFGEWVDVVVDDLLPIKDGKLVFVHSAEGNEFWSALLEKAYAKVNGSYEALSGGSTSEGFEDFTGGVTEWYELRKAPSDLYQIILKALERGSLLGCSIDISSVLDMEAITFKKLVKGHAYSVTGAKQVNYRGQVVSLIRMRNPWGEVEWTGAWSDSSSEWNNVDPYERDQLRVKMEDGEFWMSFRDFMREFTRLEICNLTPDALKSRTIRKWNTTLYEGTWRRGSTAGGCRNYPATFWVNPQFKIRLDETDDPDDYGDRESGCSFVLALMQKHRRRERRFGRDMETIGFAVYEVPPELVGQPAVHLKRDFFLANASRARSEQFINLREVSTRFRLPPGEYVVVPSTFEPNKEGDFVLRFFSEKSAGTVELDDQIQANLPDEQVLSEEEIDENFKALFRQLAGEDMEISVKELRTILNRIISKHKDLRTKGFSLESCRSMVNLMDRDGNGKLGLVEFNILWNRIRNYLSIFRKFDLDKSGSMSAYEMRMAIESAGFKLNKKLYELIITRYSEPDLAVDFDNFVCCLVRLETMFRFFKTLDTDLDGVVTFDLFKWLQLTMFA
T5 sequence (P04632 1-268 partner): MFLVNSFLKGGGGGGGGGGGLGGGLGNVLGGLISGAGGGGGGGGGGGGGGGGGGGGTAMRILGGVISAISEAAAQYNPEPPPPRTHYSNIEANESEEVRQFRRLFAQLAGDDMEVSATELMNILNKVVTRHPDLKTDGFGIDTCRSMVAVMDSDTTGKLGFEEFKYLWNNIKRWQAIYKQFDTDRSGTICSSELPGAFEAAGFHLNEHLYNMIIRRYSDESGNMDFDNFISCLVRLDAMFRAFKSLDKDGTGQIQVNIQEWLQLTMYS
Procedure, shortened: as §1

T2 sequence (P07711 114-333): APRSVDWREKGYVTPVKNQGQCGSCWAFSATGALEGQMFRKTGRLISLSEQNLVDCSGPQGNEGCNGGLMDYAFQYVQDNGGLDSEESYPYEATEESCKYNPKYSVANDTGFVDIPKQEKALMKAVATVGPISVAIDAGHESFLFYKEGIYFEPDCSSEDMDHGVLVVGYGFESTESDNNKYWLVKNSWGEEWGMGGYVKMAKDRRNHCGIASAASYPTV
T1 sequence (P25774 115-331): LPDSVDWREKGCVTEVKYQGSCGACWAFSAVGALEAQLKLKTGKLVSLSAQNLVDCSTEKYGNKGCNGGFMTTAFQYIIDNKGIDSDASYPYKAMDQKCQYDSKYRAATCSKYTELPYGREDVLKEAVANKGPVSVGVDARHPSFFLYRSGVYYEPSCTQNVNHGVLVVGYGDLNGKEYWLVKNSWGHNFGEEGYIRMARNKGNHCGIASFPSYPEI

Sel cat. L [2] | Sel cat. B [3] | Ki [5] [nM] | SMILES | Sel cat. S [1] | Sel cat. K [4]
++ (10<Ki(cathepsin B)/Ki(calpain)≦30) | ++ (10<Ki(cathepsin B)/Ki(calpain)≦30) | < 50 | NC(=O)C(=O)C(Cc1ccccc1)NC(=O)[C@H]1CCC(=O)N1Cc1cccc(Cl)c1 (stereo partly drawn) [Example 3, (2R)—N-(4-Amino-3,4-dioxo-1-phenylbutan-2-yl)-1-(3-chlorobenzyl)-5-oxopyrrolidine-2-carboxamide] | +++ (Ki(cathepsin S)/Ki(calpain) ratio of >100) | +++ (Ki(cathepsin K)/Ki(calpain) ratio of >30)
++ (10<Ki(cathepsin B)/Ki(calpain)≦30) | ++ (10<Ki(cathepsin B)/Ki(calpain)≦30) | 50 to 100 | NC(=O)C(=O)C(Cc1ccccc1)NC(=O)[C@H]1CCC(=O)N1Cc1ccc(F)cc1 (stereo partly drawn) [Example 5, (2R)—N-(4-Amino-3,4-dioxo-1-phenylbutan-2-yl)-1-(4-fluorobenzyl)-5-oxopyrrolidine-2-carboxamide] | ++ (30<Ki(cathepsin B)/Ki(calpain)≦100) | ++ (10<Ki(cathepsin B)/Ki(calpain)≦30)
++ (10<Ki(cathepsin B)/Ki(calpain)≦30) | ++ (10<Ki(cathepsin B)/Ki(calpain)≦30) | 100 to 600 | N#Cc1cccc(CN2C(=O)CC[C@@H]2C(=O)NC(Cc2ccccc2)C(=O)C(N)=O)c1 (stereo partly drawn) [Example 16, (2R)—N-(4-Amino-3,4-dioxo-1-phenylbutan-2-yl)-1-(3-cyanobenzyl)-5-oxopyrrolidine-2-carboxamide] | + (10<Ki(cathepsin S)/Ki(calpain)≦30) | +++ (Ki(cathepsin K)/Ki(calpain) ratio of >30)
++ (10<Ki(cathepsin B)/Ki(calpain)≦30) | ++ (10<Ki(cathepsin B)/Ki(calpain)≦30) | 50 to 100 | NC(=O)C(=O)C(Cc1ccccc1)NC(=O)[C@H]1CCC(=O)N1Cc1c(F)cccc1F (stereo partly drawn) [Example 51, (2R)—N-(4-Amino-3,4-dioxo-1-phenylbutan-2-yl)-5-oxo-1-(2,6-difluorobenzyl)-pyrrolidine-2-carboxamide] | +++ (Ki(cathepsin S)/Ki(calpain) ratio of >100) | +++ (Ki(cathepsin K)/Ki(calpain) ratio of >30)
++ (10<Ki(cathepsin B)/Ki(calpain)≦30) | ++ (10<Ki(cathepsin B)/Ki(calpain)≦30) | 100 to 600 | O=C(NCc1ncco1)C(=O)C(Cc1ccccc1)NC(=O)[C@H]1CCC(=O)N1Cc1ccccc1 (stereo partly drawn) [Example 64, (2R)-1-Benzyl-N-(4-(oxazol-2-ylmethylamino)-3,4-dioxo-1-phenylbutan-2-yl)-5-oxopyrrolidine-2-carboxamide] | +++ (Ki(cathepsin S)/Ki(calpain) ratio of >100) | +++ (Ki(cathepsin K)/Ki(calpain) ratio of >30)

SMILES | Sel cat. L [2] | Sel cat. B [3] | Ki [5] [nM] | Sel cat. S [1] | Sel cat. K [4]
O=C(NCc1ccc2c(c1)OCO2)C(=O)C(Cc1ccccc1)NC(=O)[C@H]1CCC(=O)N1Cc1ccccc1 (mixture of isomers) [Example 66, (2R)—N-(4-(Benzo[d][1,3]-dioxol-5-ylmethylamino)-3,4-dioxo-1-phenylbutan-2-yl)-1-benzyl-5-oxopyrrolidine-2-carboxamide] | ++ (10<Ki(cathepsin B)/Ki(calpain)≦30) | +++ (Ki(cathepsin B)/Ki(calpain) ratio of >30) | 50 to 100 | +++ (Ki(cathepsin S)/Ki(calpain) ratio of >100) | ++ (10<Ki(cathepsin B)/Ki(calpain)≦30)
O=C(NCc1ccc(F)cc1)C(=O)C(Cc1ccccc1)NC(=O)[C@H]1CCC(=O)N1Cc1ccccc1 (mixture of isomers) [Example 67, (2R)-1-Benzyl-N-(4-(4-fluorobenzylamino)-3,4-dioxo-1-phenylbutan-2-yl)-5-oxopyrrolidine-2-carboxamide] | +++ (Ki(cathepsin L)/Ki(calpain) ratio of >30) | +++ (Ki(cathepsin B)/Ki(calpain) ratio of >30) | < 50 | +++ (Ki(cathepsin S)/Ki(calpain) ratio of >100) | +++ (Ki(cathepsin K)/Ki(calpain) ratio of >30)
NC(=O)C(=O)C(Cc1ccccc1)NC(=O)[C@H]1CCC(=O)N1Cc1cccc(F)c1 (stereo partly drawn) [Example 8, (2R)—N-(4-Amino-3,4-dioxo-1-phenylbutan-2-yl)-1-(3-fluorobenzyl)-5-oxopyrrolidine-2-carboxamide] | ++ (10<Ki(cathepsin B)/Ki(calpain)≦30) | +++ (Ki(cathepsin B)/Ki(calpain) ratio of >30) | 50 to 100 | +++ (Ki(cathepsin S)/Ki(calpain) ratio of >100) | ++ (10<Ki(cathepsin B)/Ki(calpain)≦30)
NC(=O)C(=O)C(Cc1ccccc1)NC(=O)[C@H]1CCC(=O)N1Cc1ccccc1C(F)(F)F (stereo partly drawn) [Example 17, (2R)—N-(4-Amino-3,4-dioxo-1-phenylbutan-2-yl)-5-oxo-1-[2-(trifluoromethyl)benzyl]-pyrrolidine-2-carboxamide] | +++ (Ki(cathepsin L)/Ki(calpain) ratio of >30) | ++ (10<Ki(cathepsin B)/Ki(calpain)≦30) | 50 to 100 | +++ (Ki(cathepsin S)/Ki(calpain) ratio of >100) | +++ (Ki(cathepsin K)/Ki(calpain) ratio of >30)
